Here are results for one molecule from PMC11363325, “A Novel Prodrug Strategy Based on Reversibly Degradable Guanidine Imides for High Oral Bioavailability and Prolonged Pharmacokinetics of Broad-Spectrum Anti-influenza Agents” (ACS Central Science, 2024).

A short description of series [1]: physchem. Type of series: physicochemical.
A short description of series [2]: physchem. Type of series: physicochemical. The conditions noted are these: pH 7.4.
Series [3] in a line: in vitro. Type of series: in vitro ADME. The settings on record: PAMPA. The protocol: To assess this hypothesis, we conducted the parallel artificial membrane permeability assay (PAMPA) for simulating passive transcellular permeation.[41]
Supplemental Experimental Procedures
In vitro Parallel Artificial Membrane Permeability Assay (PAMPA) […]
evaluated using Parallel Artificial Membrane Permeability Assay Kit (PAMPA-096). Each prodrug and the supplied permeability controls were dissolved in DMSO at the concentration of 10 mM. Then 25 μL of each prodrug solution was mixed with 475 μL of 50 mM sodium phosphate buffer (pH 6.5) to be used as the test solution. GOC/HPMCP and OSC-GCDI/HPCMP particles are dissolved in 50 mM sodium phosphate buffer (5% DMSO, pH 6.5) to achieve a final concentration of 200 µM. In the acceptor plate, 300 μL of 50 mM sodium phosphate buffer (pH 7.4) was added. Subsequently, before adding 200 μL of each test solution to the donor plate, 5 μL of 4% lecithin in dodecane was directly applied to the well membrane of the donor plate. Donor plate was carefully placed into acceptor plate and incubate at r.t. for 16 – 24 h. Donor plate was removed and each solution was collected and filtered by a PVDF filter (0.20 μm pore size). The total prodrug concentration in each plate was determined by HPLC analysis.
In the case of OSC-GCDI(P), partial degradation occurred due to the instability of OSC-GCDI(P) in the buffer. Therefore, the collected solution was further incubated in a 1 M KOH solution for complete hydrolysis. Then, the concentration of GOC was quantified instead.
(The PAMPA barrier holds no transporters, so it reflects passive diffusion.)

A short description of series [4]: Stability of OSC-GCDIs in phosphate buffers. Type of series: physicochemical. The conditions noted are these: for half-life at 100 μM: sodium phosphate buffer, read-out: T1/2.
Series [5] in a line: Stability of OSC-GCDIs and GOC release in BALB/c serum. It is filed as in vitro ADME. The settings on record: mouse; for GOC released: 200 μM. The procedure: (§1) Stability of OSC-GCDIs in serum
Stability of the GCDI prodrugs were examined by incubating prodrugs in human and BALB/c serum at 37 °C and 200 μM final concentration. Briefly, each prodrug was dissolved in DMSO to be 20 mM concentration, then 10 μL of each prodrug solution was mixed with 990 μL of serum. At different time intervals, 100 μL of the samples were taken and mixed with 100 μL of MeCN. Samples were centrifuged at 14,000 rpm for 10 min at 4 °C and the supernatant was immediately frozen (−80 °C). After thawing and shaking, the samples were filtered using a polytetrafluoroethylene (PTFE) filter (0.20 μm pore size) […]
Release profiles of GOC from the OSC -GCDI prodrugs conjugated to human serum albumin OSC-GCDIs were dissolved in Dulbecco ’s Phosphate-Buffered Saline (DPBS) containing HSA (20 mg/mL) to be concentration of 1 mM, then the mixture was shaken for 10 min at 37 °C. Unbound OSC-GCDIs were removed by washing twice with DPBS using Vivaspin 500 ultrafiltration units (10 kDa cutoff).
Following centrifugation, the samples were redissolved in 1 mL DPBS. Before incubation at 37 °C, 50 µL sample was taken and mixed with 50 µL of 1 M KOH in m ethanol solution to completely hydrolyze the conjugates and determine the initial drug concentration bound to HSA. Subsequently, the samples were incubated at 37 °C and after 1, 2, 4, 24, and 72 h incubation, 50 µL of the samples were taken and mixed with 50 µL MeCN. Then, the concentration of the released GOC was quantified by HPLC. […]

The nature of series [6]: Stability of OSC-GCDIs in human serum. Type of series: in vitro ADME. The conditions noted are these: 200 μM prodrug, 37 °C. The protocol:
as §1
Stability of the GCDI prodrugs were examined by incubating prodrugs in human and BALB/c serum at 37 °C and 200 μM final concentration. Briefly, each prodrug was dissolved in DMSO to be 20 mM concentration, then 10 μL of each prodrug solution was mixed with 990 μL of serum. At different time intervals, 100 μL of the samples were taken and mixed with 100 μL of MeCN. Samples were centrifuged at 14,000 rpm for 10 min at 4 °C and the supernatant was immediately frozen (−80 °C). After thawing

Series [7] in a line: In vitro microsomal stability. It is filed as in vitro ADME, rat. The protocol: In vitro microsomal stability
Sprague Dawley rat microsomes were obtained from GibcoTM. NADPH was purchased from Sigma-Aldrich (Munich, Germany). Liver microsomes at 0.5 mg/mL concentration (final volume of 200 μL) were incubated in phosphate buffer (pH 7.4), containing 3 mM MgCl2. OSC-GCDI prodrug was dissolved in DMSO to be 40 mM concentration, then each prodrug solution was mixed with prepared buffer to achieve a final concentration of 100 μM (0.25% DMSO). Test compounds were incubated at 37 °C and started by the addition of the 1mM NADPH as cofactor. The samples were taken at 0, 30, 60, and 90 min. The reaction was terminated by addition of ice-cold acetonitrile/methanol (1:1, v/v). After collection, samples were centrifuged (10 min, 16,000 rpm), then the centrifuged supernatant was directly analyzed by using HPLC analysis. Metabolic half-time (t1/2) was calculated by using the equation of first order

Series [8] concerns the target human serum albumin (HSA) (Homo sapiens, UniProt P02768). The experiment in a line: Albumin binding of OSC-GCDIs (MALDI-TOF MS). The conditions noted are these: MALDI-TOF MS of trypsin-digested HSA. The protocol:
Albumin binding of OSC-GCDIs
OSC-GCDI(P) (0.2 mg/mL or 10 mg/mL) was mixed with HSA (1 mg/mL) in 50 mM Tris -HCl buffer (pH 6.8). The sample was shaken for 20 min at room temperature. Unbound OSC-GCDI(P) was removed by washing three times with distilled water (DW) using Vivaspin 500 ultrafiltration units (10 kDa cutoff).
Following centrifugation, the HSA samples were placed in the condition of 8 M urea, 50 mM Tris-HCl (pH 6.8), and 5 mM DTT at 37 °C for 60 min. Then, 50 mM Tris-HCl (pH 6.8) was added until the urea concentration was less than 1 M. Trypsin Gold was then added to achieve a final protease-to-protein ratio of 1:20 (w/w). The sample was incubated at 37 °C for 60 min. The mass-to-charge ratio of the digested sample was measured by MALDI-TOF (Matrix -Assisted Laser Desorption/Ionization Time -of-Flight) MS using α-cyano-4-hydroxycinnamic acid as the matrix. […]

The conditions of series [9]: mice, oral, non-formulated prodrug.
The nature of series [10]: in vitro. The conditions noted are these: dog.
For series [11], the system named is A/Puerto Rico/8/1934 (PR8; H1N1). Nature of the series: microbe, parasite or virus in culture. The conditions noted are these: Influenza A virus, MDCK.
The test system of series [12] is A/Hong Kong/8/1968 (HK; H3N2). Nature of the series: microbe, parasite or virus in culture. The conditions noted are these: Influenza A virus, H3N2, MDCK.
Series [13] deals with B/Lee/1940 (Lee). Nature of the series: microbe, parasite or virus in culture. The conditions noted are these: Influenza B virus, MDCK.

Molecules are shown by their SMILES.

Chain of human serum albumin (HSA) (P02768 25-609): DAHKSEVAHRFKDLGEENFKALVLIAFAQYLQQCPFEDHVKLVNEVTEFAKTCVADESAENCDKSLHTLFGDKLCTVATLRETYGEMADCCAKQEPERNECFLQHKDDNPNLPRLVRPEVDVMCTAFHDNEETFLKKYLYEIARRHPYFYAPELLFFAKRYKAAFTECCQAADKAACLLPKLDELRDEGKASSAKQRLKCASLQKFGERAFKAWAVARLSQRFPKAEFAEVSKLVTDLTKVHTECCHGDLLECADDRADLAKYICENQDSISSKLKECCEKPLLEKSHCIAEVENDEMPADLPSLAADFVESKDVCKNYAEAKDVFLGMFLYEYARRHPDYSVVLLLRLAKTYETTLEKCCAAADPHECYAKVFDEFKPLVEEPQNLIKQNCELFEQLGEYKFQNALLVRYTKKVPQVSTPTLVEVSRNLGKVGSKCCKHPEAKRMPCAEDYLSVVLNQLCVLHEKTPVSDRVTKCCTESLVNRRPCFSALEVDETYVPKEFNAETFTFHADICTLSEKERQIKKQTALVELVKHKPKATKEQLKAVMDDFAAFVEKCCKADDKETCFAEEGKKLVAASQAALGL

The molecule `CCC(CC)O[C@@H]1C=C(C(=O)O)C[C@H](N=C(N2C(=O)c3ccccc3C2=O)N2C(=O)c3ccccc3C2=O)[C@H]1NC(C)=O` [OSC-GCDI(P)] had a logP in series [1] of 1.61. The molecule further gave a logD in series [2] of 1.01. This molecule showed a Papp at 500 μM in series [3] of 3.88 ± 0.31 ×10⁻⁶ cm/s. For the same molecule, the “Effective permeability Pe” value in [3] (500 μM) was determined as 3.07 ×10⁻⁶ cm/s. Besides, the T1/2 amounted to 93.7 min in [4] (phosphate buffer pH 2.0, 37 °C) and 87.7 min in series [4] (phosphate buffer pH 6.5, 37 °C). Besides, the half-life at 100 μM in series [4] (pH 2, phosphate buffer pH 2.0, 37 °C) was 94 min; in series [4] (pH 6.5, phosphate buffer pH 6.5, 37 °C), 88 min; in series [4] (pH 7.4, phosphate buffer pH 7.4, 37 °C) it was 14.1 min; in series [4] (pH 8, phosphate buffer pH 8.0, 37 °C) it was below 1 min; in series [7] (Sprague Dawley, liver microsomes, pH 7.4, rat liver microsome, 100 μM, 37 °C), 17.7 min. For the same molecule, the GOC released is on record as 37% in [5] (BALB/c, 30 min) and 68% in series [5] (BALB/c, 24 h). Moreover, the half-life at 200 μM was 1.3 min in [5] (BALB/c, serum); 1.3 min in [5] (BALB/c serum, 200 μM prodrug, 37 °C, read-out: T1/2); 1.3 min in [6]. The “CLint (intrinsic clearance)” value in series [7] (rat, microsomes) came to 78.2. Besides, the “covalent conjugation to HSA” value in [8] is given as “covalent adducts”. For the same molecule, in series [9], the “plasma concentration of the prodrug” value is “below detection limit”. This molecule also displayed a CC50 at 3 days in series [10] above 100000 nM. Besides, the 50% effective concentration (EC50) worked out at 30 ± 10 nM in series [11], 10 ± 10 nM in series [12] and 2260 ± 400 nM in series [13].

The logP is the decadic logarithm of the partition coefficient of the neutral form, usually between octanol and water. Low values mean a more hydrophilic compound, high ones a more lipophilic compound. The logD is the decadic logarithm of the distribution of all forms, ionised or not, between an organic phase and buffer at a given pH. A higher logD goes with a more lipophilic compound. The term Papp denotes the rate of passage across a membrane or cell layer, normalised by area and donor concentration. Low readings indicate slow passage, high ones fast passage. In general, EC50 refers to the midpoint of the concentration-response curve.
